This note sets out measurements from US9255110B2 (Hoffmann-La Roche Inc., priority 2010, dated 2016).

The structures appear in SMILES notation. Where a name gives a salt, the structure may show the parent alone.

IRAK-4, sequence (Q9NWZ3 whole entry, species assumed): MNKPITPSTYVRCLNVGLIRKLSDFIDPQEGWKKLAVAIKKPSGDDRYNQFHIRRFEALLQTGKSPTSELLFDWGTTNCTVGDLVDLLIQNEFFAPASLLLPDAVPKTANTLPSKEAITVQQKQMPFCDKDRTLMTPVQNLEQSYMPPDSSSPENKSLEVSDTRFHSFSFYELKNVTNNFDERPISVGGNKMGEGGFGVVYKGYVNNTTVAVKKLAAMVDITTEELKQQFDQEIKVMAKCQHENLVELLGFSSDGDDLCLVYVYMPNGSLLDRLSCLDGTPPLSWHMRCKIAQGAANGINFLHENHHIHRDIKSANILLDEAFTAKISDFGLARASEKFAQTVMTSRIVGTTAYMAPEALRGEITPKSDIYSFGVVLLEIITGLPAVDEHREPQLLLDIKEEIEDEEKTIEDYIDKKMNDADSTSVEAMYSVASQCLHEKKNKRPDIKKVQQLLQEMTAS

This assay has as its target IRAK-4 (Homo sapiens (Human), UniProt Q9NWZ3). Kind of assay: In vitro IRAK-4 kinase assay. Conditions: purified recombinant IRAK-4, 50 uM ATP, 33P peptide phosphorylation. It is filed as biochemical. As to the method: Purified recombinant IRAK-4 protein was incubated with 250 uM synthetic peptide ([…]) in 30 ul of kinase buffer including (20 mM MOPS pH7.2, 25 mM beta glycerol phosphate, 5 mM EGTA, 1 mM sodium orthovanadate, 1 mM DTT, 50 uM ATP, 20 mM MgCl2, 10 uCi γ-^33P, 0.1% BSA) for the indicated time. For purified recombinant IRAK-1 protein kinase assay, 50 uM ATP was used. A 25 ul aliquot of the reaction mixture was transferred on to p81 phosphocellulose squares (Upstate Biotechnology, Lake Placid, N.Y.). The assay squares were washed three times with 0.75% phosphoric acid and once with acetone. Enzyme activity was measured by determining the bound radioactivity by liquid scintillation counting.
With `CCc1ccc(Cl)cc1NC(=O)c1cnn2cccnc12` [Example 154, Pyrazolo[1,5-alpha]pyrimidine-3-carboxylic acid (5-chloro-2-ethyl-phenyl)-amide], the IC50 is 3800 nM.

Consider `NC1CCC(Oc2ccc(Cl)cc2NC(=O)c2csc3cncnc23)CC1` (stereo not shown) [Example 118, Thieno[3,2-d]pyrimidine-7-carboxylic acid [2-(4-amino-cyclohexyloxy)-5-chloro-phenyl]-amide], for which the IC50 came out at 1470 nM.

For `COc1cc(C(=O)Nc2ccccc2)ccc1NC(=O)c1cnn2cccnc12` [Example 89, Pyrazolo[1,5-alpha]pyrimidine-3-carboxylic acid (2-methoxy-4-phenylcarbamoyl-phenyl)-amide], the IC50 was determined as 455 nM.

`COc1cc(C(=O)NCCO)ccc1NC(=O)c1cnn2cccnc12` [Example 146, Pyrazolo[1,5-alpha]pyrimidine-3-carboxylic acid [4-(2-hydroxy-ethylcarbamoyl)-2-methoxy-phenyl]-amide]: the IC50 was 2960 nM.

Turning to `COc1cc2cc[nH]c2cc1NC(=O)c1cnn2cccnc12` [Example 110, Pyrazolo[1,5-alpha]pyrimidine-3-carboxylic acid (5-methoxy-1H-indol-6-yl)-amide], the IC50 was determined as 787 nM.

Turning to `Cc1ncoc1COc1ccc(Cl)cc1NC(=O)c1csc2cncnc12` [Example 115, Thieno[3,2-d]pyrimidine-7-carboxylic acid [5-chloro-2-(4-methyl-oxazol-5-ylmethoxy)-phenyl]-amide], the IC50 worked out at 1050 nM.

In the case of `O=C(Nc1nc2ccccc2n1CCCO)c1csc2cncnc12` [Example 136, Thieno[3,2-d]pyrimidine-7-carboxylic acid [1-(3-hydroxy-propyl)-1H-benzoimidazol-2-yl]-amide], the IC50 stood at 2310 nM.

As to `COc1cnc2c(C(=O)Nc3cc(Cl)ccc3OC3CCC(O)CC3)cnn2c1` (stereo not shown) [Example 76, 6-Methoxy-pyrazolo[1,5-a]pyrimidine-3-carboxylic acid [5-chloro-2-(4-hydroxy-cyclohexyloxy)-phenyl]-amide], the IC50 is 301 nM.

For the molecule `O=C(Nc1cc(Cl)ccc1N1CCOCC1)c1cnn2cccnc12` [Example 99, Pyrazolo[1,5-alpha]pyrimidine-3-carboxylic acid (5-chloro-2-morpholin-4-yl-phenyl)-amide], the IC50 was 523 nM.

For the molecule `Nc1cccc(NC(=O)c2cnn3cccnc23)c1N1CCCCC1` [Example 63, Pyrazolo[1,5-alpha]pyrimidine-3-carboxylic acid (3-amino-2-piperidin-1-yl-phenyl)-amide], the IC50 came out at 156 nM.

On to `COc1cc(CO)ccc1NC(=O)c1cnn2cccnc12` [Example 177, Pyrazolo[1,5-alpha]pyrimidine-3-carboxylic acid (4-hydroxymethyl-2-methoxy-phenyl)-amide], for which the half-maximal inhibitory concentration (IC50) came to 8670 nM.

For `COc1ccc(CCCO)cc1NC(=O)c1cnn2cccnc12` [Example 176, Pyrazolo[1,5-alpha]pyrimidine-3-carboxylic acid [5-(3-hydroxy-propyl)-2-methoxy-phenyl]-amide], the half-maximal inhibitory concentration (IC50) is 8360 nM.

As for `CN(CCCO)c1ccc(Cl)cc1NC(=O)c1cnn2cccnc12` [Example 149, Pyrazolo[1,5-alpha]pyrimidine-3-carboxylic acid {5-chloro-2-[(3-hydroxy-propyl)-methyl-amino]-phenyl}-amide], the IC50 is 3400 nM.

`CNCC1CCN(c2ccc(Cl)cc2NC(=O)c2csc3cncnc23)CC1` [Example 8, Thieno[3,2-d]pyrimidine-7-carboxylic acid [5-chloro-2-(4-methylaminomethyl-piperidin-1-yl)-phenyl]-amide]: the IC50 worked out at 8 nM.

Consider `O=C(Nc1cc2cccnc2cc1OC1CCNC1)c1csc2cncnc12` (stereo not shown) [Example 88, Thieno[3,2-d]pyrimidine-7-carboxylic acid [7-(pyrrolidin-3-yloxy)-quinolin-6-yl]-amide hydrochloride], for which the IC50 stood at 455 nM.

Regarding `NCC1CCN(c2ccc(Cl)cc2NC(=O)c2cnn3cccnc23)CC1` [Example 31, Pyrazolo[1,{tildeover (5)}alpha] pyrimidine-3-carboxylic acid [2-(4-aminomethyl-piperidin-1-yl)-5-chloro-phenyl]-amide], the IC50 turned out to be 37 nM.

Take `O=C(Nc1cc(Cl)ccc1OCCC(O)CO)c1cnn2cccnc12` (stereo not drawn) [Example 96, Pyrazolo[1,5-alpha]pyrimidine-3-carboxylic acid [5-chloro-2-(3,4-dihydroxy-butoxy)-phenyl]-amide]: the IC50 was 506 nM.

`NC1CCN(c2ccc(Cl)cc2NC(=O)c2cnn3cccnc23)CC1` [Example 70, Pyrazolo[1,{tildeover (5)}-alpha] pyrimidine-3-carboxylic acid [2-(4-amino-piperidin-1-yl)-5-chloro-phenyl]-amide]: the IC50 was 251 nM.

On to `Cc1ccn2ncc(C(=O)Nc3cc(Cl)ccc3OC3CCC(O)CC3)c2n1` (stereo not drawn) [Example 170, 5-Methyl-pyrazolo[1,5-alpha]pyrimidine-3-carboxylic acid [5-chloro-2-(4-hydroxy-cyclohexyloxy)-phenyl]-amide], for which the IC50 turned out to be 6560 nM.

Turning to `COC(=O)COc1ccc(Cl)cc1NC(=O)c1cnn2cccnc12` [Example 160, {4-Chloro-2-[(pyrazolo[1,5-alpha]pyrimidine-3-carbonyl)-amino]-phenoxy}-acetic acid methyl ester], the half-inhibitory concentration (IC50) amounted to 4300 nM.

With `COc1cnc2c(C(=O)Nc3cc(Cl)ccc3N3CCC(CO)CC3)cnn2c1` [Example 29], the IC50 came to 33 nM.

On to `COCCCOc1ccc(Cl)cc1NC(=O)c1cnn2cccnc12` [Example 138, Pyrazolo[1,5-alpha]pyrimidine-3-carboxylic acid [5-chloro-2-(3-methoxy-propoxy)-phenyl]-amide], for which the IC50 is 2420 nM.

With `COc1cc(C(N)=O)ccc1NC(=O)c1cnn2cccnc12` [Example 134, Pyrazolo[1,5-alpha]pyrimidine-3-carboxylic acid (4-carbamoyl-2-methoxy-phenyl)-amide], the IC50 came out at 2260 nM.

Consider `COc1ccc(Cl)cc1NC(=O)c1csc2cnc(N(C)CCN)nc12` [Example 86, 2-[(2-Amino-ethyl)-methyl-amino]-thieno[3,2-d]pyrimidine-7-carboxylic acid (5-chloro-2-methoxy-phenyl)-amide], for which the IC50 was 436 nM.

As for `COc1cc2ncccc2cc1NC(=O)c1csc2cnc(NCC(C)C)nc12` [Example 73, 2-Isobutylamino-thieno[3,2-d]pyrimidine-7-carboxylic acid (7-methoxy-quinolin-6-yl)-amide], the IC50 came to 271 nM.

As for `CCc1ccc(OC)c(NC(=O)c2cnn3cccnc23)c1` [Example 166, Pyrazolo[1,5-alpha]pyrimidine-3-carboxylic acid (5-ethyl-2-methoxy-phenyl)-amide], the IC50 stood at 5880 nM.

As for `O=C(Nc1cc(Cl)ccc1N1CCCC1)c1cnn2cccnc12` [Example 78, Pyrazolo[1,5-alpha]pyrimidine-3-carboxylic acid (5-chloro-2-pyrrolidin-1-yl-phenyl)-amide], the IC50 was 312 nM.

Consider `CN1CCN(c2ccc(Cl)cc2NC(=O)c2cnn3cccnc23)CC1` [Example 97, Pyrazolo[1,5-alpha]pyrimidine-3-carboxylic acid [5-chloro-2-(4-methyl-piperazin-1-yl)-phenyl]-amide], for which the half-maximal inhibitory concentration (IC50) came out at 512 nM.

For the molecule `COc1cc(-c2ccccc2)ccc1NC(=O)c1cnn2cccnc12` [Example 165, Pyrazolo[1,5-alpha]pyrimidine-3-carboxylic acid (3-methoxy-biphenyl-4-yl)-amide], the IC50 was 5200 nM.

For the molecule `COCCOc1ccc(Cl)cc1NC(=O)c1cnn2cccnc12` [Example 124, Pyrazolo[1,5-alpha]pyrimidine-3-carboxylic acid [5-chloro-2-(2-methoxy-ethoxy)-phenyl]-amide], the IC50 was found to be 1710 nM.

For the molecule `COc1cc2ccccc2cc1NC(=O)c1cnn2cccnc12` [Example 104, Pyrazolo[1,5-alpha]pyrimidine-3-carboxylic acid (3-methoxy-naphthalen-2-yl)-amide], the IC50 was 613 nM.

Regarding `NC1CCN(c2ccc(Cl)cc2NC(=O)c2cnn3cccnc23)C1` (stereo not drawn) [Example 109, Pyrazolo[1,5-alpha]pyrimidine-3-carboxylic acid [2-(3-amino-pyrrolidin-1-yl)-5-chloro-phenyl]-amide], the IC50 turned out to be 766 nM.

As for `O=C(Nc1cc(Cl)ccc1N1CCCCC1)c1cnn2cccnc12` [Example 79, Pyrazolo[1,5-alpha]pyrimidine-3-carboxylic acid (5-chloro-2-piperidin-1-yl-phenyl)-amide], the IC50 was 314 nM.

On to `O=C(Nc1cc(Cl)ccc1OC1CCCC(O)C1)c1cnn2cccnc12` (stereo not drawn) [Example 103, Pyrazolo[1,5-alpha]pyrimidine-3-carboxylic acid [5-chloro-2-(3-hydroxy-cyclohexyloxy)-phenyl]-amide], for which the IC50 came out at 605 nM.

In the case of `O=C1Cc2cc(N3CCCCC3)c(NC(=O)c3cnn4cccnc34)cc2N1` [Example 48, Pyrazolo[1,5-alpha]pyrimidine-3-carboxylic acid (2-oxo-5-piperidin-1-yl-2,3-dihydro-1H-indol-6-yl)-amide], the IC50 was 98 nM.

On to `COc1ccc(Cl)cc1NC(=O)c1csc2cccnc12` [Example 150, Thieno[3,2-beta]pyridine-3-carboxylic acid (5-chloro-2-methoxy-phenyl)-amide], for which the IC50 was 3460 nM.

`COc1cc2ncccc2cc1NC(=O)c1cnn2cccnc12` [Example 33, Pyrazolo[1,{tildeover (5)}alpha] pyrimidine-3-carboxylic acid (7-methoxy-quinolin-6-yl)-amide]: the IC50 amounted to 43 nM.
